From patent publication EP4124338A1, “SIGMA-1 RECEPTOR ACTIVATOR FOR USE IN THE TREATMENT OF A PATHOLOGY ASSOCIATED WITH WFS1 MUTATION” (Université de Montpellier, priority 2021, dated 2023)
Where a name gives a salt, the structure may show the parent alone.

Experiments:
Wfs1ab^KO larvae = assay: Visual Motor Response (VMR), locomotor activity of larvae during light OFF periods; assay type: in vivo, zebrafish; conditions: Fig. 9
Experimental: Zebrafish Generation: All experiments were performed in accordance with the 2010/63/EU Directive and the ARRIVE guidelines. Zebrafish were purchased at the KIT - European Zebrafish Resource Center. Heterozygous Wfs1a^C799X and Wfs1b^W493X mutant line were maintained in an automated fish tank system (ZebTEC, Tecniplast) at 28°C, pH 7, conductivity around 500 µS and with a 14h:10h light:dark cycle. They were fed with standard diet. Heterozygous Wfs1a^C799X/+ zebrafish were crossed to generate wild-type (Wfs1a^WT) and homozygous mutant Wfs1a^C799X zebrafish (Wfs1a^C799X), which became progenitors in order to generate future generations for the experiments. […]
Visual Motor Response (VMR): The VMR assay quantifies the locomotor activity of zebrafish larvae to light changes using infrared tracking system. […] At 5-dpf, the locomotor behavior of larvae was monitored by using an automated videotracking device (Zebrabox®, ViewPoint) by employing a DinionXF 1/3-inch Monochrome camera (model BFLY-PGE-13H2M, FLIR) fitted with a fixed-angle megapixel lens (SR5014MP-5C, SEIKO Optical). […] The floor of the box emitted by a light-controlling unit a white light (69-83 µW/cm2 measured at 495 λ). The response to stimuli was recorded by an infra-red (IR) camera (25 frames/s) under IR light illumination at 850 nm, which the animals could not perceive. […] The distance covered was measured in mm/s. […]

Wfs1^ΔExon8 mice [1] = assay: Spontaneous alternation in the Y-maze (spatial working memory); assay type: in vivo; conditions: male Wfs1^ΔExon8 mice; PRE-084 0.3 mg/kg ip (legend b25; b84 says 1 mg/Kg) 30 min before the Y-maze session; Fig. 2
Source text: (§1) Drugs and administration procedures: 2-(4-morpholinethyl)-1-phenylcyclohexanecarboxylate hydrochloride (PRE-084) was from Sigma-Aldrich (Saint-Quentin-Fallavier, France). […]
Spontaneous alternation in the Y-maze: The test assesses spatial working memory. The maze was made of grey polyvinylchloride. Each arm was 40 cm long, 13 cm high, 3 cm wide at the bottom, 10 cm wide at the top, and converging at an equal angle. Each mouse was placed at the end of one arm and allowed to move freely through the maze during an 8 min session. The series of arm entries, including possible returns into the same arm, was recorded visually. An alternation was defined as entries into all three arms on consecutive occasions. The number of maximum alternations was therefore the total number of arm entries minus two and the percentage of alternation was calculated as (actual alternations/maximum alternations) × 100. […] Thirteen animals were discarded accordingly corresponding to 26% attrition. […]

Wfs1^ΔExon8 mice [2] = assay: Step-through type passive avoidance test (non-spatial long-term memory); assay type: in vivo; conditions: male Wfs1^ΔExon8 mice, 0.3 mg/kg ip 30 min before training, retention
Source text: as §1
Step-through type passive avoidance test: The test measures non-spatial long-term memory. The apparatus is a two-compartments (15 × 20 × 15 cm high) box with one illuminated with white polyvinylchloride walls and the other darkened with black polyvinylchloride walls and a grid floor. A guillotine door separates each compartment. A 60 W lamp positioned 40 cm above the apparatus lights up the white compartment during the experiment. Scrambled foot shocks (0.3 mA for 3 s) could be delivered to the grid floor using a shock generator scrambler (Lafayette Instruments, Lafayette, USA). The guillotine door was initially closed during the training session. Each mouse was placed into the white compartment. After 5 s, the door was raised. […] The step-through latency, that is, the latency spent to enter the darkened compartment, and the shock sensitivity (estimated as 0 = no reaction, 1 = flinching reactions, 2 = flinchings and vocalizations) were recorded. […] The step-through latency and escape latency (corresponding to the time spent to exit the dark compartment) were recorded up to 300 s each. […]

Wfs1^ΔExon8 mice [3] = assay: Place learning in the water-maze (spatial reference memory); assay type: in vivo
Experimental: as §1
Place learning in the water-maze: Spatial reference memory was analyzed using a water-maze procedure. A transparent Plexiglas non-slippery platform (Ø 10 cm) was immersed in a circular pool (Ø 140 cm, height 40 cm), under the water surface during acquisition. The water temperature, 23 ± 1°C, light intensity, external cues in the room, and water opacity were rigorously reproduced. Swimming was videotracked (Viewpoint), with trajectories being analyzed as latencies and distances. The software divided the pool into four quadrants. Training consisted in three swims per day for 6 days, with 15 min intertrial-time interval. Start positions, set at each limit between quadrants, were randomly selected and each mouse was allowed a 90 s swim to find the platform, initially placed in the NE quadrant. […] The median latency and swim path length were calculated for each training day. Acquisition slopes were also calculated individually over the acquisition period. Forty-eight hours after the last swim, on day 7, a probe test was performed during which the platform was removed and each animal allowed a free 60 s swim. The time spent in the training (T) quadrant and the average of time spent in the 3 others (o) were determined. On days 8, mice were re-tested in the water-maze for assessing visual ability and non-spatial learning. They were submitted to the acquisition of a visible platform placed in a new location, with training consisting in three swims per day with 15 min intertrial-time interval. Swimming was analyzed as latencies. No exclusion criterion has been set in this test.

Wfs1^ΔExon8 mice [4] = assay: Black-and-white exploration box test (anxiety); assay type: in vivo; conditions: female Wfs1^ΔExon8 mice, 0.3 mg/kg ip 30 min before
Source text: as §1
Black-and-white exploration box test: Anxiety level of WFS1 KO mice was first examined using the black-and-white exploration box. It consisted of two adjacent compartments (23 × 16 × 10 cm^3) separated by a small opening (6 × 6 cm^2). The light compartment is brightly lit from above and covered with a transparent lid, and the dark compartment is covered with a black lid. Mice were placed in the light box, and exploration measured during 10 min by IR videotracking (Viewpoint). The time spent in each compartment and number of crossings among compartments were recorded. The time in the light compartment per visit was calculated. […] Seven animals were discarded accordingly corresponding to 14% attrition.
(§2) Experimental series: For phenotyping, animals were tested in series in the different behavioral tests assessing activity, learning and memory or anxiety, finishing with the most stressful procedures: (1) open-field (1 day), (2) spontaneous alternation (1 day), (3) object recognition (2 days), (4) place learning in the water-maze water-maze (5+2 days), (5) passive avoidance (2 days), (6) elevated plus-maze (1 day), and (7) black-and-white box exploration (1 day), in that order and over 16 days. For PRE-084 treatment experiments, animals were tested in series on a limited number of tests: spontaneous alternation (1 day), object recognition (2 days) and passive avoidance (2 days) for males, elevated plus-maze (1 day) and black-and-white box (1 day) for females.

Wfs1^ΔExon8 mice [5] = assay: Elevated plus-maze test (anxiety); assay type: in vivo; conditions: female Wfs1^ΔExon8 mice, 0.3 mg/kg ip 30 min before
Source text: as §1
Elevated plus-maze test: The apparatus consisted of two open arms (24 × 8 cm^2), in white PVC, and two enclosed arms (24 × 8 × 20 cm^3), in dark grey PVC. The arms extended from a central platform (8 × 8 cm), and the maze was elevated to a height of 50 cm above the floor. Each mouse was placed at the centre of the plus-maze and its exploration behaviour was recorded during 10 min. The time spent and numbers of entries into the enclosed or open arms were recorded. Results were expressed as total number of entries into the arms, time spent in the open arms, time spent per visit in the open arms.
as §2

Wfs1^ΔExon8 mice [6] = assay: Object recognition test (short-term recognition memory); assay type: in vivo; conditions: male Wfs1^ΔExon8 mice
Source text: as §1
Object recognition test: The test measures short-term recognition memory. The apparatus consisted in four squared open-fields (50 cm × 50 cm × 50 cm high) made in white Plexiglas and placed on a floor equipped with infrared (IR) light emitting diodes. The locomotor activity of the animal and position of their nose could be captured through an IR-sensitive camera and analyzed using the Videotrack® and Nosetrack® softwares (Viewpoint). Session 1: animals were allowed to acclimate during 10 min to the open-field. The mouse locomotion was analyzed by videotracking. […] Each mouse was placed in the open-field and the exploratory activity and nose position was recorded during 10 min. The activity was analyzed by videotracking in terms of number of contacts with the objects and duration of contacts. […] Each mouse was placed again in the open-field and the exploratory activity recorded during 10 min. The activity was analyzed similarly. The preferential exploration index was calculated as the ratio of the number of contacts with the object in position 2 over the total number of contacts with the two objects. […]

O=C(OCCN1CCOCC1)C1(c2ccccc2)CCCCC1 [PRE-084, 2-(4-morpholinethyl)-1-phenylcyclohexanecarboxylate hydrochloride]
hyperlocomotor response (Wfs1ab^KO larvae; at 3 and 10 µM in the bath): down to the WT line mobility
hyperlocomotor response (Wfs1ab^KO larvae; between 0.1 and 10 µM in the bath, 4 dpf to 5 dpf): concentration-dependent decrease of the hyperlocomotor response
spontaneous alternation (Wfs1^ΔExon8 mice [1]): very significant recovery of spontaneous alternation
escape latency (Wfs1^ΔExon8 mice [2]; Fig. 5b): significantly reduced
step-through latency deficit (Wfs1^ΔExon8 mice [2]; compared to V-treated Wfs1^WT mice, Fig. 5a): very significant for V-treated Wfs1^ΔExon8 mice but not for PRE-084-treated Wfs1^ΔExon8 mice
acquisition slopes (Wfs1^ΔExon8 mice [3]; male Wfs1^ΔExon8 mice, compared to V-treated Wfs1^WT mice, Fig. 4c): only vehicle (V)-treated Wfs1^ΔExon8 mice showed a statistically significant decrease
delay in acquisition / swimming latencies (Wfs1^ΔExon8 mice [3]; male Wfs1^ΔExon8 mice, daily injection 0.3 mg/kg ip 30 min before 1st swim of each training trial, Fig. 4b): prevented this delay and significantly decreased swimming latencies during the two last trials
probe test, exploration of the T quadrant (Wfs1^ΔExon8 mice [3]; male mice, 60-s swim without platform, Fig. 4d): no impact of the PRE-084 was noted
number of crossing (Wfs1^ΔExon8 mice [4]; Fig. 6a): slightly reduced
time spent in the light compartment (Wfs1^ΔExon8 mice [4]; Fig. 6b): increased up to the levels of Wfs1^WT mice
time per visit (light compartment) (Wfs1^ΔExon8 mice [4]; Fig. 6c): increased up to the levels of Wfs1^WT mice
maze exploration (total number of arm entries) (Wfs1^ΔExon8 mice [5]; Fig. 7a): no impact was noted
time spent in open arms (Wfs1^ΔExon8 mice [5]; Fig. 7b): slightly increased
time per visit in open arms (Wfs1^ΔExon8 mice [5]; Fig. 7c): significantly increased
object exploration during session 2 (Wfs1^ΔExon8 mice [6]; 0.3 mg/kg ip 30 min before session with two identical objects, Fig. 3a): failed to affect object exploration
exploration for the novel object in session 3 (Wfs1^ΔExon8 mice [6]; 0.3 mg/kg ip, Fig. 3b): attenuated the deficit of exploration for the novel object
